From patent publication US11279708B2, “Amidino- and amino-rocaglates as novel translation inhibitors and anticancer agents” (priority 2019, dated 2022)

Experiments:
[1] = test system: eIF4A-dependent translation; test: in vitro translation assay, bicistronic FF/HCV/Ren reporter mRNA in Krebs-2 extracts; format: biochemical; settings: for inhibition of cap-dependent translation in vitro (in words): screen at 2 μM compound; for IC50: bicistronic FF/HCV/Ren mRNA, FIG. 14/15, read-out: IC50, inhibition of cap-dependent translation (FF relative to REN)
Experimental: Structure-Activity Relationships. With a number of amidino-rocaglates and amino-rocaglates in hand, we evaluated their inhibition of eIF4A-dependent translation using an in vitro assay as depicted in FIG. 14, where a bicistronic reporter mRNA was designed for translation in Krebs-2 extracts. In FIG. 14 the following description applies (a) IC50 was determined from fitted sigmoid curves; […] indicates the concentration of compound that inhibits cap-dependent translation by 50%, which was normalized by cap-independent translation. For its determination, the bicistronic reporter FF/HCV/Ren mRNA was used to produce Firefly luciferase (cap-dependent) and Renilla luciferase (cap-independent) in Krebs-2 extracts in the presence of indicated compounds at various concentrations. In particular, translation of Firefly luciferase (FF) is cap-dependent and depends on eIF4A activity; in contrast, translation of Renilla luciferase (REN) utilizes the HCV internal ribosome entry site (IRES) which functions independently of eIF4A. IC50's were determined by the inhibition of FF relative to REN obtained in the presence of compound relative to vehicle controls and normalized to REN as an internal control. […] In accordance with the eIF4A-RNA-rocaglamide (2) co-crystallographic analysis (FIG. 4), the amide carbonyl of 2 interacts with Gln195 of eIF4A as a H-bond acceptor, while the tertiary hydroxyl of 2 serves as a H-bond donor to an RNA base. […] To further verify the hypothesis, amidino-rocaglates (pKa of N—H˜26.7-30.7 in DMSO, strong H-bond donors) and amino-rocaglates (pKa of N—H˜36 to 44 in DMSO, weak H-bond donors) were next evaluated. […] Conversely, benzyl amidine 9e had IC50=60 nM, whereas the methylene tether may allow conformational adjustment to avoid rigid repulsion in the binding pocket.
The rocaglate collection was also tested in in vitro translation assays using cell-free extracts with a previously described bicistronic mRNA containing the HCV IRES, which is not dependent on eIF4A activity and served as an internal control (FIG. 19C).
In Vitro Translation Assays. In vitro translation assays performed in Krebs-2 cell extracts were supplemented with 5 mM MgCl2, 30 mM Tris-HCl (pH 7.5), 1.5 mM ATP, 0.1 mM GTP, 0.6 mM CTP, 10 mM dipotassium creatine phosphate, 80 μg/mL creatine kinase, and 0.04 mM amino acids. The specified mRNA reporters were added to each reaction at a final concentration of 10 ng/μL. The translation reactions were incubated with or without compound for 60 minutes at 30° C. prior to the measurement of luciferase activities.
FIGS. 19A-19C. Rocaglate activity profiling. 19A. Assessing eIF4A1:poly r(AG)8 (SEQ ID NO: 2) RNA binding by FP in the presence of 10 μM rocaglate. Values are expressed relative to vehicle controls and data is rank ordered. n=3±SD. 19B. The change in polarization obtained with eIF4A1:poly r(AG)8 (SEQ ID NO: 2) and eIF4A2:poly r(AG)8 (SEQ ID NO: 2) RNA. Pearson r=0.814; p<0.0001. 19C. Inhibition of cap-dependent translation by rocaglates was measured using the indicated mRNA bicistronic reporter (4 ng/ul) in Krebs-2 extracts at a final compound concentration of 2 μM. n=3±SD.
FIG. 35A-35E are plots showing dose-response curve of FF-HCV-Ren mRNA translation in Krebs extracts with IC50s shown for inhibition of cap-dependent protein synthesis. Values are plotted relative to DMSO controls. n=2 technical replicates performed in duplicate.

eIF4A1 = biological target: T1, eIF4A1 (Oryctolagus cuniculus, UniProt P29562); test: RNA pulldowns (RPDs) with biotinylated RNA baits in translation extracts; format: binding, Rabbit; settings: 500 nM rocaglate, retic lysate
T1 construct: Rabbit reticulocyte lysates (Promega) were pre-incubated with 500 nM of the indicated compound; tissue Promega; host or cells: rabbit reticulocyte lysate
T1 sequence (P29562 whole entry): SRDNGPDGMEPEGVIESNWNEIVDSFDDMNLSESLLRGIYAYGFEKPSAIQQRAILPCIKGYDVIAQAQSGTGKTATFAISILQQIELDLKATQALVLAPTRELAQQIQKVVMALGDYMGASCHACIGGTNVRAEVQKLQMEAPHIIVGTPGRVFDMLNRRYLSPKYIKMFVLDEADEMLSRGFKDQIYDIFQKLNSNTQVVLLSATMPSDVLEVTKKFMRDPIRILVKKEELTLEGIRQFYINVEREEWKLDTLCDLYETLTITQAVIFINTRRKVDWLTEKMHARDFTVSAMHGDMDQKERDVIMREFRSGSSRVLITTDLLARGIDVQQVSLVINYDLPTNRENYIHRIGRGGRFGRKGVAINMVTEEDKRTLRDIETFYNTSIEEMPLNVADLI
Experimental: To determine the ability of rocaglates to recruit eIF4A to RNA in translation extracts, RNA pulldowns (RPDs) using 30 nt polypurine—or polypyrimidine-biotinylated RNA baits were performed. RNA baits were added to in vitro translation extracts in the presence or absence of rocaglate followed by purification using immobilized streptavidin. […] When the RPDs were performed using ApppG-capped RNA with purified eIF4A1 or eIF4F rather than translation extracts, an increase in eIF4A1:polypyrimidine RNA association with silvestrol was not observed (FIG. 25B).
RNA Pull Down (RPD) Experiments. Rabbit reticulocyte lysates (Promega) were pre-incubated with 500 nM of the indicated compound for 15 minutes at 30° C. prior to the addition of m7GpppG- or ApppG-capped biotinylated RNAs (added to a final concentration of 1 μM biotinylated RNA bait). The reactions were incubated for an additional 15 minutes at 30° C. and then diluted 10× with ice cold wash buffer (0.5% v/v NP-40, 50 mM HEPES (pH 7.3), 150 mM KCl, 2 mM EDTA, 2 mM MgC2,). Magnetic streptavidin beads (NEB) were used to capture the biotinylated RNA baits and the reactions were incubated end over end for 1 hour at 4° C. The beads were then washed three times with ice cold wash buffer (10 minutes per wash) and the RNA bound proteins were eluted by digesting with 50 U of RNaseI (Ambion, AM2294) for 15 minutes at 37° C. Eluted proteins were analyzed by Western blotting.
FIGS. 25A-25B. […] 25A. RPDs performed with the indicated m^7GpppG- or ApppG-capped RNA species incubated in the presence of retic lysate and either vehicle or 500 nM rocaglate. 25B. RPDs performed with m^7GpppG-capped RNA species incubated in the presence of recombinant eIF4A (125 nM) eIF4F or Krebs-2 extracts and either vehicle or 500 nM silvestrol.

| Compound | inhibition of cap-dependent translation in vitro (in words) [1] | recruitment of eIF4A1 to RNA baits (in words) (eIF4A1) | IC50 [1] [nM] |
| --- | --- | --- | --- |
| COC(=O)[C@H]1[C@@H](O)[C@@]2(O)c3c(OC)cc(O[C@@H]4O[C@@H]([C@H](O)CO)CO[C@H]4OC)cc3O[C@@]2(c2ccc(OC)cc2)[C@@H]1c1ccccc1 [silvestrol] | potently inhibit cap-dependent translation | induced eIF4A1 binding to both the polypurine and polypyrimidine baits |  |
| COC(=O)[C@@H]1[C@@H](c2ccccc2)[C@]2(c3ccc(OC)cc3)Oc3cc(OC)cc(OC)c3[C@@]23N=C(C)N[C@@]13O [9b] | comparable potency to SDS-1-021 |  | 189 |
| CONC(=O)[C@H]1[C@@H](O)[C@@]2(O)c3c(OC)cc(OC)cc3O[C@@]2(c2ccc(OC)cc2)[C@@H]1c1ccccc1 [CR-1-31-B] |  | eIF4A1 was recruited to the purine-rich mRNA template in a cap-independent manner | 272 |
| COc1ccc([C@@]23Oc4cc(OC)cc(OC)c4[C@]2(O)[C@H](O)[C@H](C(=O)N(C)C)[C@H]3c2ccccc2)cc1 [RocA, rocaglamide A] |  | eIF4A1 was recruited to the purine-rich mRNA template in a cap-independent manner |  |
